Experimental data published in ChEMBL document CHEMBL4190224, “Xanthohumol Blocks Proliferation and Migration of Vascular Smooth Muscle Cells in Vitro and Reduces Neointima Formation in Vivo” (J Nat Prod, 2017).
The source made the active and inactive calls. No cut-off for these calls is given here.

Columns and labels:
VSMC [1] = experiment: Inhibition of PDGF-BB-induced rat VSMC proliferation preincubated for 30 mins followed by PDGF-BB addition measured after 48 hrs by resazurin assay; format: functional, cell-based
Mus musculus = experiment: Inhibition of cuff-induced restenosis in C57BL/6 mouse femoral artery cuff model assessed as reduction in neointima formation dosed via local application using compound dissolved on F-127 gel measured after 2 weeks by hematoxylin and eosin staining-based microscopic analysis; format: functional, organism-based
VSMC [2] = experiment: Antimigratory activity against PDGF-BB-stimulated rat VSMC at 15 uM preincubated for 30 mins followed by PDGF-BB addition measured after 20 hrs by scratch wound-healing assay; format: functional, cell-based
VSMC [3] = experiment: Cytotoxicity against rat VSMC at 1 to 15 uM after 48 hrs by LDH release assay; format: cell-based

## COc1cc(O)c(CC=C(C)C)c(O)c1C(=O)/C=C/c1ccc(O)cc1 [XANTHOHUMOL]
VSMC [1]
  IC50: 3.49 µM
  inhibition: Dose-dependent effect
Mus musculus
  Activity: Active
VSMC [2]
  Activity: Active
VSMC [3]
  Activity: Non-Toxic
